Experimental data reported in the kinase profiling compilation of Christmann-Franck et al. (2016).

Tests used:
Assay in all cases: radiometric filter-binding kinase assay, Kinase HotSpot
Settings in all cases: compound 0.5 µM; ATP 10 µM
AKT2 (human) = AKT2 (human) (UniProt P31751)
AURKB (human) = AURKB (human) (UniProt Q96GD4)
AXL (human) = AXL (human) (UniProt P30530)
CAMK2G (human) = CAMK2G (human) (UniProt Q13555)
CDK7 CCNH MNAT1 (human) = CDK7 CCNH MNAT1 (human) (UniProt P50613+P51948+P51946)
CSF1R (human) = CSF1R (human) (UniProt P07333)
CSNK1G1 (human) = CSNK1G1 (human) (UniProt Q9HCP0)
DYRK3 (human) = DYRK3 (human) (UniProt O43781)
EPHA4 (human) = EPHA4 (human) (UniProt P54764)
EPHB1 (human) = EPHB1 (human) (UniProt P54762)
Chain of EPHB1 (human) (P54762 whole entry, looked up): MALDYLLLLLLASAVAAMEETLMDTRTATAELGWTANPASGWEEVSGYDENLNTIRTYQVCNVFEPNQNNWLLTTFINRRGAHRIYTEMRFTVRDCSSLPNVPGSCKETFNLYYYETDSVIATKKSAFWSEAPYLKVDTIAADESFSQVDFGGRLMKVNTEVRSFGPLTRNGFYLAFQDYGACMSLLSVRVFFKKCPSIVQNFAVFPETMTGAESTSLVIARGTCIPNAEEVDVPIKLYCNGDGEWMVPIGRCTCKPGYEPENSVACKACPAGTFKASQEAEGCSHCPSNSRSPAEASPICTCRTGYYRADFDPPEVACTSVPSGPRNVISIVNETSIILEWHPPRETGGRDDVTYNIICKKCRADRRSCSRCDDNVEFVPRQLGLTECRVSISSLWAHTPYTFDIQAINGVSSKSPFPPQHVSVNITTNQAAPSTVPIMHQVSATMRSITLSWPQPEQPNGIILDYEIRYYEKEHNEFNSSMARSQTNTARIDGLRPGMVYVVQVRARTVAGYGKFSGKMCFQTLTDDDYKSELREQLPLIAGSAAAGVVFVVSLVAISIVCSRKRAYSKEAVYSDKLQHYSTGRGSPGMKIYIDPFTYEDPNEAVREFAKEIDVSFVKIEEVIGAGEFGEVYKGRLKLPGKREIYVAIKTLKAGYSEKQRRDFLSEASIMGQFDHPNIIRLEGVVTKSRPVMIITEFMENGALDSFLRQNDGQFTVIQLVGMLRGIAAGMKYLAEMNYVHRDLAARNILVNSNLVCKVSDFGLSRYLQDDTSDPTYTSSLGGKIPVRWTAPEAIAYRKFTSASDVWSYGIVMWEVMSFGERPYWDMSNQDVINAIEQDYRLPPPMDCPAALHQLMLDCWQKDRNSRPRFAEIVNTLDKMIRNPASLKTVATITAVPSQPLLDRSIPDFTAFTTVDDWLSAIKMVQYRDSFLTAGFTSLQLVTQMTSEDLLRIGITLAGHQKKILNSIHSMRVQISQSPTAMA

EPHB4 (human) = EPHB4 (human) (UniProt P54760)
ERBB4 (human) = ERBB4 (human) (UniProt Q15303)
HCK (human) = HCK (human) (UniProt P08631)
HIPK2 (human) = HIPK2 (human) (UniProt Q9H2X6)
INSRR (human) = INSRR (human) (UniProt P14616)
ITK (human) = ITK (human) (UniProt Q08881)
JAK2 JH1 JH2 (human) = JAK2 JH1 JH2 (human) (UniProt O60674)
Chain of JAK2 JH1 JH2 (human) (O60674 whole entry, looked up): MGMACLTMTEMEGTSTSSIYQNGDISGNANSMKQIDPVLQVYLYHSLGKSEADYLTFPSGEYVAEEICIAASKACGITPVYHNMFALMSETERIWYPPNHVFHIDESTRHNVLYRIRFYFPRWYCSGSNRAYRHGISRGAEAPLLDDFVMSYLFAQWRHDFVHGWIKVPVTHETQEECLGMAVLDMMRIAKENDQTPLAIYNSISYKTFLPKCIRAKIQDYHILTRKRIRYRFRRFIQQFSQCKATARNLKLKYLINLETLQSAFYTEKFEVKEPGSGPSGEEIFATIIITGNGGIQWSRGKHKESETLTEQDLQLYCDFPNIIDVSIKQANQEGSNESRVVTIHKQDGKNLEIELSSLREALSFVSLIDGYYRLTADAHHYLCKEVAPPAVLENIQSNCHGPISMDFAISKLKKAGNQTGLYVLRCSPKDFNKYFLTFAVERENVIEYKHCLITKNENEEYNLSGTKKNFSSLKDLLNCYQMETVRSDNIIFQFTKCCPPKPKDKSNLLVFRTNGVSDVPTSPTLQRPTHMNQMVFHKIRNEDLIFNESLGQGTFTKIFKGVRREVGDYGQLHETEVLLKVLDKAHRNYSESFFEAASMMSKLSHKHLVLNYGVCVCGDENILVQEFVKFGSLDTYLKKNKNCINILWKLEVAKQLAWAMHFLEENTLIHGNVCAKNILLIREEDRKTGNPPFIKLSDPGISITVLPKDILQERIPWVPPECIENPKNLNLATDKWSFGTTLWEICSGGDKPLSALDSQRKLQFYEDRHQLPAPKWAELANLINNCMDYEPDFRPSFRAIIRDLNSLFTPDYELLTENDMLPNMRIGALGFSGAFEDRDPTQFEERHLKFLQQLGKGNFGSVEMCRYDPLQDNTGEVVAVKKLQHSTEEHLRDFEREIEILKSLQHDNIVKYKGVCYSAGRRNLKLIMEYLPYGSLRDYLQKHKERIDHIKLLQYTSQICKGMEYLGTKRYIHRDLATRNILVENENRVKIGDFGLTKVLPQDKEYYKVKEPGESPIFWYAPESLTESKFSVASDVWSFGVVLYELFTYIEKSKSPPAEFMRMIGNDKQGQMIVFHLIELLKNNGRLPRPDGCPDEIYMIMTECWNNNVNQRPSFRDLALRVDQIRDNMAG

MAP2K2 (human) = MAP2K2 (human) (UniProt P36507)
MAPK12 (human) = MAPK12 (human) (UniProt P53778)
MAPK3 (human) = MAPK3 (human) (UniProt P27361)
MAPKAPK3 (human) = MAPKAPK3 (human) (UniProt Q16644)
MAPKAPK5 (human) = MAPKAPK5 (human) (UniProt Q8IW41)
MERTK (human) = MERTK (human) (UniProt Q12866)
MLTK (human) = MLTK (human) (UniProt Q9NYL2)
NEK4 (human) = NEK4 (human) (UniProt P51957)
NUAK1 (human) = NUAK1 (human) (UniProt O60285)
NUAK2 (human) = NUAK2 (human) (UniProt Q9H093)
PAK2 (human) = PAK2 (human) (UniProt Q13177)
PASK (human) = PASK (human) (UniProt Q96RG2)
PDGFRA (human) = PDGFRA (human) (UniProt P16234)
PDPK1 (human) = PDPK1 (human) (UniProt O15530)
PHKG2 (human) = PHKG2 (human) (UniProt P15735)
PKN1 (human) = PKN1 (human) (UniProt Q16512)
PKN2 (human) = PKN2 (human) (UniProt Q16513)
PRKACA (human) = PRKACA (human) (UniProt P17612)
PRKCE (human) = PRKCE (human) (UniProt Q02156)
PTK2 (human) = PTK2 (human) (UniProt Q05397)
Chain of PTK2 (human) (Q05397 whole entry, looked up): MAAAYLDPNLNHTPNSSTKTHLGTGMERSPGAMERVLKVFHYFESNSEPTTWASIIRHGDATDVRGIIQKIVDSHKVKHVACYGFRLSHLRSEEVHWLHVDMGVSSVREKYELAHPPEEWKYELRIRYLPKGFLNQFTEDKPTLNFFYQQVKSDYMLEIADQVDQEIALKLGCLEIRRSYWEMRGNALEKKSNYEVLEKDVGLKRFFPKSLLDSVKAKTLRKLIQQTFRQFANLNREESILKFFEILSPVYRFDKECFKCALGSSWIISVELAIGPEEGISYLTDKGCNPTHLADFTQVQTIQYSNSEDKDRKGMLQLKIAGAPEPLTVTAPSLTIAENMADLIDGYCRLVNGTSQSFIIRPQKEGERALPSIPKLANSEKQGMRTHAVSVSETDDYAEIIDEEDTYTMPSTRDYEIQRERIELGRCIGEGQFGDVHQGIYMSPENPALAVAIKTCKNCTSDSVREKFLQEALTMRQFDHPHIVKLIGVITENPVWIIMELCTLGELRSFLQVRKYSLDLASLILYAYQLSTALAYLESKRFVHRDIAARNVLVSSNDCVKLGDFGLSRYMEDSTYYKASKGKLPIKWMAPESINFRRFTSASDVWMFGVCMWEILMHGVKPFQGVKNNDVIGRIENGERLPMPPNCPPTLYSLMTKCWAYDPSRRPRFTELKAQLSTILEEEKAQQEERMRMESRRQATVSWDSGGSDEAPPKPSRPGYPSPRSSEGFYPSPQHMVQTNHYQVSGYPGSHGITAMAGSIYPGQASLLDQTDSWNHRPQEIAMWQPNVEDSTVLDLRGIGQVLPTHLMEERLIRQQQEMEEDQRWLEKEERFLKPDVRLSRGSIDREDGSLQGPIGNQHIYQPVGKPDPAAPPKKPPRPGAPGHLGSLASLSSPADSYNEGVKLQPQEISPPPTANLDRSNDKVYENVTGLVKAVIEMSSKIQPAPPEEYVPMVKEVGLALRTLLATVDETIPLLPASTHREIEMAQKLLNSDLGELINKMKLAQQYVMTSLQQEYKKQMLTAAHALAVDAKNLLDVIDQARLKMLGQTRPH

PTK2B (human) = PTK2B (human) (UniProt Q14289)
Chain of PTK2B (human) (Q14289 whole entry, looked up): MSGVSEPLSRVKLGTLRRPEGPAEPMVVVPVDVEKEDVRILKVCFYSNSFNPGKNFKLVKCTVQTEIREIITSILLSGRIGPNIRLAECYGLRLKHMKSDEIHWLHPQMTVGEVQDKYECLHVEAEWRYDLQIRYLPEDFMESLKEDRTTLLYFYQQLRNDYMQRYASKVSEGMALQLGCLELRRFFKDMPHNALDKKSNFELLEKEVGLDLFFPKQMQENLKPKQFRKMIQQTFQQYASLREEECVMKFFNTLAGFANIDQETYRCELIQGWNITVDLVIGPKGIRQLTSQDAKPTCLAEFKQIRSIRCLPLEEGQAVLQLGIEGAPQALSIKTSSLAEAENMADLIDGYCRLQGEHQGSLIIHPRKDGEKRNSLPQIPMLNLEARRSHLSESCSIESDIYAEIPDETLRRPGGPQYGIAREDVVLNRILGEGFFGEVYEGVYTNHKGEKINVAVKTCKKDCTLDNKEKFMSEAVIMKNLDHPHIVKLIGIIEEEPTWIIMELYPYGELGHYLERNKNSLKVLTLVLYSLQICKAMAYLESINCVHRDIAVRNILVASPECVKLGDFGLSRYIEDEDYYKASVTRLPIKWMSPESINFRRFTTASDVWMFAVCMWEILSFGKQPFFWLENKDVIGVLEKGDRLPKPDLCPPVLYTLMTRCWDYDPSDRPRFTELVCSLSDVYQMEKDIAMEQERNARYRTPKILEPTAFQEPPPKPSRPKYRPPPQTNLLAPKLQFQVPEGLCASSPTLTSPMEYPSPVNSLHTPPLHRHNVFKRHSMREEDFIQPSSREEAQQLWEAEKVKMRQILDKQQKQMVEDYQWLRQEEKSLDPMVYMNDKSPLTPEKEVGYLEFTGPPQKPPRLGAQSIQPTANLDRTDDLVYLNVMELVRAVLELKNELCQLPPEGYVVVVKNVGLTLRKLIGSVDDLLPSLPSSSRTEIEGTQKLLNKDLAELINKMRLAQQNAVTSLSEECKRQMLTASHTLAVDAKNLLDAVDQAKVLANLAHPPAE

SGK3 (human) = SGK3 (human) (UniProt Q96BR1)
SRPK1 (human) = SRPK1 (human) (UniProt Q96SB4)
STK10 (human) = STK10 (human) (UniProt O94804)
WNK3 (human) = WNK3 (human) (UniProt Q9BYP7)

Chain of CAMK2G (human) (Q13555 whole entry, looked up): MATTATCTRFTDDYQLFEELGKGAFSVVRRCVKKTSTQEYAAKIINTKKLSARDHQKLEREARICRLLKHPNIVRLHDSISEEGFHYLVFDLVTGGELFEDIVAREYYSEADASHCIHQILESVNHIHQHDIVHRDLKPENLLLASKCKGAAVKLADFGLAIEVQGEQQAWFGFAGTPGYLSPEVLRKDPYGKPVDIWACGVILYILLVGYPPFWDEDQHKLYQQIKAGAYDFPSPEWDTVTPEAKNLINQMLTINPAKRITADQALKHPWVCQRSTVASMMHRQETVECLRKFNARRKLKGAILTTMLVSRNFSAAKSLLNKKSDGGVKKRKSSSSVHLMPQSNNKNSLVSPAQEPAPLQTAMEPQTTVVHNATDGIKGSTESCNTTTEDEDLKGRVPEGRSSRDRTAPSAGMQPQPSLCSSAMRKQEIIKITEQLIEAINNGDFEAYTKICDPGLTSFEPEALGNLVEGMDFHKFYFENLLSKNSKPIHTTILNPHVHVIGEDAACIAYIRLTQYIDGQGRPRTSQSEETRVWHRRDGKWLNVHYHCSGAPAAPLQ
Chain of AURKB (human) (Q96GD4 whole entry, looked up): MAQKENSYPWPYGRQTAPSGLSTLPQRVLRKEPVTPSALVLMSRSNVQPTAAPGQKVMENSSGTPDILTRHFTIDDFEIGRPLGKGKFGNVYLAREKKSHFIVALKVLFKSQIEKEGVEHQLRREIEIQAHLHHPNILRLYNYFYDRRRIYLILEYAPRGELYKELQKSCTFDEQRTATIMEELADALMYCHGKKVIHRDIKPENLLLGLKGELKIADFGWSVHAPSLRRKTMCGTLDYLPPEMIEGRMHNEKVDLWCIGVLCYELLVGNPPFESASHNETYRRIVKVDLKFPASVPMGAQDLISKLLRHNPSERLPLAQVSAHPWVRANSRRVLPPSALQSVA

Compound: O=C1NC(=O)/C(=C/c2ccc3c(c2)OC(F)(F)O3)S1
- residual activity (AKT2 (human)): 96.2%
- residual activity (AURKB (human)): 102%
- residual activity (AXL (human)): 107%
- residual activity (CAMK2G (human)): 102%
- residual activity (CDK7 CCNH MNAT1 (human)): 98.3%
- residual activity (CSF1R (human)): 106%
- residual activity (CSNK1G1 (human)): 75.5%
- residual activity (DYRK3 (human)): 100%
- residual activity (EPHA4 (human)): 95.9%
- residual activity (EPHB1 (human)): 95.6%
- residual activity (EPHB4 (human)): 100%
- residual activity (ERBB4 (human)): 99.5%
- residual activity (HCK (human)): 89.8%
- residual activity (HIPK2 (human)): 104%
- residual activity (INSRR (human)): 110%
- residual activity (ITK (human)): 92.9%
- residual activity (JAK2 JH1 JH2 (human)): 92.9%
- residual activity (MAP2K2 (human)): 110%
- residual activity (MAPK12 (human)): 92.8%
- residual activity (MAPK3 (human)): 91.6%
- residual activity (MAPKAPK3 (human)): 94.2%
- residual activity (MAPKAPK5 (human)): 98.2%
- residual activity (MERTK (human)): 94.5%
- residual activity (MLTK (human)): 97.6%
- residual activity (NEK4 (human)): 97.8%
- residual activity (NUAK1 (human)): 91.8%
- residual activity (NUAK2 (human)): 74.8%
- residual activity (PAK2 (human)): 99.9%
- residual activity (PASK (human)): 78.2%
- residual activity (PDGFRA (human)): 103%
- residual activity (PDPK1 (human)): 100%
- residual activity (PHKG2 (human)): 95.2%
- residual activity (PKN1 (human)): 98.5%
- residual activity (PKN2 (human)): 113%
- residual activity (PRKACA (human)): 101%
- residual activity (PRKCE (human)): 103%
- residual activity (PTK2 (human)): 94.9%
- residual activity (PTK2B (human)): 110%
- residual activity (SGK3 (human)): 94.7%
- residual activity (SRPK1 (human)): 105%
- residual activity (STK10 (human)): 98.6%
- residual activity (WNK3 (human)): 91.5%

Compound: CCC(=O)Nc1ccc2ncnc(Nc3cccc(Br)c3)c2c1
- residual activity (AKT2 (human)): 102%
- residual activity (AURKB (human)): 95.4%
- residual activity (AXL (human)): 126%
- residual activity (CAMK2G (human)): 105%
- residual activity (CDK7 CCNH MNAT1 (human)): 102%
- residual activity (CSF1R (human)): 98.9%
- residual activity (CSNK1G1 (human)): 98.6%
- residual activity (DYRK3 (human)): 92.3%
- residual activity (EPHA4 (human)): 94.3%
- residual activity (EPHB1 (human)): 93.3%
- residual activity (EPHB4 (human)): 93.4%
- residual activity (ERBB4 (human)): 82.3%
- residual activity (HCK (human)): 93%
- residual activity (HIPK2 (human)): 97%
- residual activity (INSRR (human)): 98.4%
- residual activity (ITK (human)): 89.7%
- residual activity (JAK2 JH1 JH2 (human)): 103%
- residual activity (MAP2K2 (human)): 85.1%
- residual activity (MAPK12 (human)): 103%
- residual activity (MAPK3 (human)): 101%
- residual activity (MAPKAPK3 (human)): 90.2%
- residual activity (MAPKAPK5 (human)): 105%
- residual activity (MERTK (human)): 83.9%
- residual activity (MLTK (human)): 96%
- residual activity (NEK4 (human)): 94.7%
- residual activity (NUAK1 (human)): 87.3%
- residual activity (NUAK2 (human)): 77.4%
- residual activity (PAK2 (human)): 101%
- residual activity (PASK (human)): 88.7%
- residual activity (PDGFRA (human)): 107%
- residual activity (PDPK1 (human)): 107%
- residual activity (PHKG2 (human)): 109%
- residual activity (PKN1 (human)): 101%
- residual activity (PKN2 (human)): 106%
- residual activity (PRKACA (human)): 94.6%
- residual activity (PRKCE (human)): 99.7%
- residual activity (PTK2 (human)): 99.4%
- residual activity (PTK2B (human)): 99%
- residual activity (SGK3 (human)): 92.8%
- residual activity (SRPK1 (human)): 97%
- residual activity (STK10 (human)): 68.7%
- residual activity (WNK3 (human)): 99.3%
